Read-outs that look alike come from different tables or passages of the source.
Tests used:
[1] = system: β-catenin-TCF-mediated reporter transcription activity in Colo 205 cells; test: Colo 205 reporter assay (TCF/LEF luciferase); format: cell-based; settings: Colo 205 TCF/LEF luciferase reporter, five hours after addition of compound, read-out: TCF reporter Colo205 IC50
Outline: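 Luciferase signal from a TCF/LEF-driven reporter, stably integrated in Colo 205 colon cancer cells, was measured 5 h after compound addition.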

[2] = target: Plk1 (Homo sapiens (Human), UniProt P53350); test: PLK1 inhibition assay (radioactive-phosphate incorporation); format: biochemical; settings: Ki(app), read-out: PLK1 - 33P.ENZ - CB 10 Ki
Plk1, sequence (P53350 whole entry, species assumed): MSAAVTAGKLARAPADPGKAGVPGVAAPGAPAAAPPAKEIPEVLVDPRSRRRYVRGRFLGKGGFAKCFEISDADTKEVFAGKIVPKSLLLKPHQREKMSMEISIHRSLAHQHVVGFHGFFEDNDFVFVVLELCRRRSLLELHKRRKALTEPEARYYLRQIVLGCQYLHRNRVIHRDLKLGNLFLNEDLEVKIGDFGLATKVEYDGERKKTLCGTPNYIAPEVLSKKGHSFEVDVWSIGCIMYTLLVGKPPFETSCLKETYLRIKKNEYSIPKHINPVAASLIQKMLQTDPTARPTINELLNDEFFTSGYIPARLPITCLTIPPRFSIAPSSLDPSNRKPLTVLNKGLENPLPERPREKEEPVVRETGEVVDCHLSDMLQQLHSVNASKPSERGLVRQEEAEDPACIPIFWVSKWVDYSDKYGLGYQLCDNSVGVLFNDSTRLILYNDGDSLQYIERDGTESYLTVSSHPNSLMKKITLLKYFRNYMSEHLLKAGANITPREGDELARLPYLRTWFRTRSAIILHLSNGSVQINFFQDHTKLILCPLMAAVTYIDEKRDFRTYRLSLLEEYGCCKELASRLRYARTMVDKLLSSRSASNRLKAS
Procedure: Compounds were screened for their ability to inhibit Plk1 using a radioactive-phosphate incorporation assay. Assays were carried out in a mixture of 25 mM HEPES (pH 7.5), 10 mM MgCl2, 25 mM NaCl, and 2 mM DTT. Final substrate concentrations were 20 μM [γ-33P]ATP (35mCi 33P ATP/mmol ATP, Perkin Elmer/Sigma Chemicals) and 9 uM Sam68 protein. Assays were carried out at room temperature in the presence of 15 nM Plk1. An assay stock buffer solution was prepared containing all of the reagents listed above, with the exception of ATP and the test compound of interest. 0.75 μL of DMSO stock containing serial dilutions of the test compound (typically starting from a final concentration of 10 μM with 2-fold serial dilutions—final DMSO concentration 1.5%) was placed in a 384 well plate followed by addition of 25 μL [γ-33P]ATP (final concentration 20 μM). The reaction was initiated by addition of 25 μL of the assay stock buffer solution.
The reaction was stopped after 45 minutes by the addition of 25 μL 30% trichloroacetic acid (TCA) containing 10 mM cold ATP. The entire quenched reaction was transferred to a 384-well glass fiber filter plate (Millipore, Cat no. MZFBNOW50). The plate was washed with 3×5% TCA. After drying, 40 μL of Ultima Gold liquid scintillation cocktail (Perkin Elmer) was added to the well prior to scintillation counting in a PerkinElmer TopCount.
After removing mean background values for all of the data points, Ki(app) data were calculated from non-linear regression analysis of the initial rate data using the Prism software package (GraphPad Prism, GraphPad Software, San Diego California, USA).

[3] = system: Colo205-TCF/LEF-Luciferase (Luc) tumor; test: In vivo inhibition of TCF/LEF reporter activity in Colo-205 tumors; design: concentration or dose not given beside the values; settings: TCF/LEF luciferase reporter in Colo-205 tumors, nu/nu mice, oral gavage
Outline: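 Female nu/nu mice carried subcutaneous Colo205-TCF/LEF-luciferase tumours (200–500 mm^3), n=4 per group. Compound was given by oral gavage in 1:3:5:1 EtOH:DMSO:PEG-400:H2O at 10 ml/kg, with vehicle as control. Luciferase activity in tumour lysates (Steady-Glo) was normalised to BCA protein.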

[4] = system: non-small cell lung cancer (NSCLC) adenocarcinoma line D33966; test: In vivo efficacy, NSCLC patient derived xenograft OD33966; design: species or system nu/nu mice; settings: Mus musculus, 336 h; NSCLC PDX OD33966, oral, 100 mpk qd, treatment day 14; read-out: % TGI
Procedure: Female immune deficient mice (Charles River, 4-6 wks age) were anesthetized with Ketamine-Xylazine (140 mg/kg-14 mg/kg ip) and shaved. Puralube eye ointment was applied to the eyes to prevent desiccation of the corneas. Betadine and 70% ethanol was applied to the shaved location to sterilize the skin at the location of the incision. The animals were placed in a biosafety cabinet for the duration of the surgery. Using scissors, an 8 to 10 mm incision was made in the lateral flank of the skin. A tumor fragment weighing between 50 and 150 mg was placed under the skin at the incision site using forceps, and staples were used to close the incision. The staples were removed 5 to 7 days after surgery. Starting approximately two weeks after implantation, animals were weighed, and tumors were measured using caliper twice weekly. Tumor volume was calculated using the formula: volume=length×width^2×0.52.
Compound administration began when xenografts reached approximately 100-300 mm3 and continued until control xenografts reached […] of the animal's body weight. Test compounds were administered orally by gastric gavage. Percent tumor growth inhibition (TG) was calculated on the indicated treatment day. Percent TGI is defined as: [1−(del T/del C)]×100%, where del T is the final minus initial average volumes of the treated group, and del C is the final minus initial average volumes of the control group. […] The tested compounds were administered orally. Vehicle control consisted of either 0.5% methylcellulose/0.1% sodium lauryl sulfate or 20% captisol. Tumor volumes were determined by caliper measurement twice a week.

[5] = system: HepG2 XBP1(u)-Luc cells; test: HepG2 XBP1 reporter assay; format: cell-based; settings: Homo sapiens, 6 h
Procedure: HepG2 hepatoma cells were transduced with a retrovirus encoding the cDNA for unspliced (u) XBP1, which contains a non-processed intron, fused to the cDNA for firefly luciferase. Upon induction of ER stress, the non-processed intron of XBP1(u) is spliced out by active IRE1alpha endonuclease. The resulting spliced (s) XBP1 is now in frame with luciferase which causes the production of active luciferase protein, resulting in bioluminescence
HepG2 XBP1(u)-Luc cells were plated […] Cultured cells with a stably transfected reporter construct were plated at approximately 30,000 cells per well into 96 well multi-well plates for twenty four hours. The testing compounds were then added to the wells in 3-fold serial dilutions using a twenty seven micromolar top concentration. A series of control wells for each cell type received only compound solvent. Six hours after the addition of compound, reporter activity for luciferase was assayed, by addition of the SteadyGlo luminescence reagent (Promega). The reporter luminescence activity was measured using Pherastar plate reader (BMG Labtech). Readings was normalized to DMSO only treated cells, and normalized activities were then used in the IC50 calculations. The HepG2 XBP1 reporter assay data are summarized in Table 47: A<0.6 μM; 0.6 μM≤B<2.0 μM; 2.0 μM≤C<10.0 μM; D≥10.0 μM.

[6] = target: HEK293 membranes over-expressing WFS-1 (Homo sapiens (Human), UniProt O76024); test: Radioligand displacement assay (tritiated Compound 136 probe); format: binding; settings: displacement of tritiated Compound 136
HEK293 membranes over-expressing WFS-1, sequence (O76024 whole entry): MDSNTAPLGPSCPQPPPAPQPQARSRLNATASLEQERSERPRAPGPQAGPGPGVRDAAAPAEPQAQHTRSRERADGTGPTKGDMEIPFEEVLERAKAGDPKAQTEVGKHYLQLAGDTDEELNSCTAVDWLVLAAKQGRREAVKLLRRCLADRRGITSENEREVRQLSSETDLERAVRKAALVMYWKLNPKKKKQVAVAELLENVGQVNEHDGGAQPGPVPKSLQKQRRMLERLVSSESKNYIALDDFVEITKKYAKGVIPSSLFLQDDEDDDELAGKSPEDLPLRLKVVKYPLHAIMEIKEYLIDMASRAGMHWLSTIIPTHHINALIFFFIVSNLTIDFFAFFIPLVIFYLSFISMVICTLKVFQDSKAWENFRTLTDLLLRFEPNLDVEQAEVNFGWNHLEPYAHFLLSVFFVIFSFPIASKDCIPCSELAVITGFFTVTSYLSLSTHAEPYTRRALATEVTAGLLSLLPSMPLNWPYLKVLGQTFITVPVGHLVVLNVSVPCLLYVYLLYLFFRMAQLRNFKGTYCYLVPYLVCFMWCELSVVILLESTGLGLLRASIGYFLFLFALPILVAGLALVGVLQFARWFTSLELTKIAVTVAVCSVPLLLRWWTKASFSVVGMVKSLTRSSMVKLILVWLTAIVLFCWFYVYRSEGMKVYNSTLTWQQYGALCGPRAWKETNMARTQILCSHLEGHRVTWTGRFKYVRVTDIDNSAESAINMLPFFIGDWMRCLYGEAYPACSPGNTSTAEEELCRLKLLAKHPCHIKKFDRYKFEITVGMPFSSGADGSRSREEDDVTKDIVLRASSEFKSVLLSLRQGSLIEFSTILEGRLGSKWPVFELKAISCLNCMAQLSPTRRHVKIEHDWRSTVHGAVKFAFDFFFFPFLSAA
Outline: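 WFS-1-overexpressing HEK293 membranes were preincubated 10 min with compound, then tritiated probe was added for 90 min at room temperature. Bound probe was collected by filtration on PEI-pretreated GF/B filters, washed and scintillation-counted. IC50 came from a 3-parameter fit of bound probe vs compound concentration.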

[7] = system: Colo-205 cells; test: Calcium flux assay (FLIPR Calcium 5); format: cell-based; settings: Homo sapiens, COLO 205, 0.6 h, FLIPR Calcium 5, measured over 36 minutes
Procedure: Compounds described herein induced ER stress by causing intracellular calcium flux. Calcium flux was measured in Colo-205 cells using the FLTPR® Calcium 5 Assay Kit according to manufacter's protocol (Molecular Devices, Cat. #R8186) on a FLIPR3 system (Molecular Devices). Calcium flux is measured over 36 minutes. The Colo-205 calcium flux assay data are summarized in Table 47: A<0.6 μM; 0.6 μM≤B<2.0 μM; 2.0 μM≤C<10.0 μM; D≥10.0 μM.

[8] = system: global gene expression in HepG2 cells; test: Global gene expression changes in HepG2 vs WFS1 depleted cells; format: cell-based; settings: HepG2, 6 hours of exposure
Excerpt: (§1) In contrast WFS1 depletion had no effect on thapsigargin induced changes in global gene expression (FIG. 7.)

[9] = system: ER stress marker proteins XBP1(s) and ATF4; test: ER stress marker immunoblot in parental HepG2 vs WFS1 KO cells; format: cell-based; settings: 6 hours, immunoblotting
Excerpt: as §1

IC50 ([1]; Homo sapiens, COLO 205, 5 h)	Ki [2]	SMILES	Percent Remaining Activity at 8 hrs after Dosing [3]	other results
< 300 nM	> 4000 nM	Cc1nc(NCc2cnn(Cc3cc(F)c(F)c(F)c3)c2)nc2c1N(C)C(=O)[C@H](C)N2C [Compound 14, (7S)-4,5,7,8-tetramethyl-2-(((1-(3,4,5-trifluorobenzyl)-1H-pyrazol-4-yl)methyl)amino)-7,8-dihydropteridin-6(5H)-one]	33%	–
< 300 nM	> 4000 nM	Cc1nc(NCc2cnn(Cc3ccc(F)cc3)c2)nc2c1N(C)C(=O)C1(CC1)N2C [Compound 223, 2′-(((1-(4-fluorobenzyl)-1H-pyrazol-4-yl)methyl)amino)-4′,5′,8′-trimethyl-5′,8′-dihydro-6′H-spiro[cyclopropane-1,7′-pteridin]-6′-one]	39%	–
< 300 nM	> 4000 nM	Cc1nc(N[C@H]2C[C@H](OCc3cc(F)c(F)c(F)c3)C2)nc2c1NC(=O)[C@H](C)N2C [Compound 254, (7S)-4,7,8-trimethyl-2-((trans-3-((3,4,5-trifluorobenzyl)oxy)cyclobutyl)amino)-7,8-dihydropteridin-6(5H)-one]	–	IC50 [5]: < 600 nM; IC50 [6]: 60 to 600 nM; EC50 [7]: 600 to 2000 nM

The remaining lines, values behind:

SMILES	IC50 ([1]; Homo sapiens, COLO 205, 5 h)	Ki [2]	Percent Remaining Activity at 8 hrs after Dosing [3]	other results
C[C@H]1C(=O)Nc2cnc(NCc3cnn(Cc4cc(F)c(F)c(F)c4)c3)nc2N1C [Compound 42, (7S)-7,8-dimethyl-2-(((1-(3,4,5-trifluorobenzyl)-1H-pyrazol-4-yl)methyl)amino)-7,8-dihydropteridin-6(5H)-one]	< 300 nM	–	20%	inhibition in vivo at 100 mg/kg [4]: 79.6%
CN1C(=O)C(C)(C)N(C)c2nc(NCc3cnn(Cc4cc(F)c(F)c(F)c4)c3)ncc21 [Compound 229, 5,7,7,8-tetramethyl-2-(((1-(3,4,5-trifluorobenzyl)-1H-pyrazol-4-yl)methyl)amino)-7,8-dihydropteridin-6(5H)-one]	< 300 nM	> 4000 nM	49%	–
Cc1nc(N[C@H]2CC[C@H](Oc3cc(F)c(F)c(F)c3)C2)nc2c1NC(=O)[C@H](C)N2C [Compound 268, (S)-4,7,8-trimethyl-2-(((1S,3S)-3-(3,4,5-trifluorophenoxy)cyclopentyl)amino)-7,8-dihydropteridin-6(5H)-one]	–	> 4000 nM	–	IC50 [1]: 300 to 1000 nM
Cc1nc(N[C@H]2C[C@@H](Cn3nccc3C(F)(F)F)C2)nc2c1NC(=O)[C@H](C)N2C [Compound 275, (7S)-4,7,8-trimethyl-2-((cis-3-((5-(trifluoromethyl)-1H-pyrazol-1-yl)methyl)cyclobutyl)amino)-7,8-dihydropteridin-6(5H)-one]	< 300 nM	> 4000 nM	–	–
C/C=C(/C)C(=O)O[C@H]1C(C)=C2[C@H]([C@@H]1OC(=O)CCCCCCC)[C@@](C)(OC(C)=O)C[C@H](OC(=O)CCC)[C@@]1(O)[C@H]2OC(=O)[C@@]1(C)O [thapsigargin, reference compound]	–	–	–	effect of WFS1 depletion on changes in global gene expression [8]: no effect; effect of WFS1 depletion on induction of XBP1(s) and ATF4 [9]: much lesser effect
